From ChEMBL document CHEMBL1201862, “PubChem BioAssay data set” (2004)
Activity calls are given as the source filed them.

What was measured:
[1] = test system: A-375; assay: MITF: Counter assay: A375 proliferation Measured in Cell-Based System Using Plate Reader - 2084-03_Inhibitor_Dose_DryPowder_Activity. [Related pubchem assays (depositor defined):AID488944]; assay type: functional; settings: Homo sapiens
[2] = test system: A-375; assay: A375 melanoma cell viability reduction, dose response, counter-screen for MITF modulator project, cherry-pick samples, set 2 (AID 540335); assay type: functional, cell-based; settings: Homo sapiens
[3] = target: T1, Short transient receptor potential channel 4 (Mus musculus, UniProt Q9QUQ5); assay: mouse TRPC4 channel activators, dose response, cell-based, HEK293 TRPC4/mu-opioid, Fluo-4 calcium (AID 434937); assay type: functional
T1 sequence (Q9QUQ5 whole entry): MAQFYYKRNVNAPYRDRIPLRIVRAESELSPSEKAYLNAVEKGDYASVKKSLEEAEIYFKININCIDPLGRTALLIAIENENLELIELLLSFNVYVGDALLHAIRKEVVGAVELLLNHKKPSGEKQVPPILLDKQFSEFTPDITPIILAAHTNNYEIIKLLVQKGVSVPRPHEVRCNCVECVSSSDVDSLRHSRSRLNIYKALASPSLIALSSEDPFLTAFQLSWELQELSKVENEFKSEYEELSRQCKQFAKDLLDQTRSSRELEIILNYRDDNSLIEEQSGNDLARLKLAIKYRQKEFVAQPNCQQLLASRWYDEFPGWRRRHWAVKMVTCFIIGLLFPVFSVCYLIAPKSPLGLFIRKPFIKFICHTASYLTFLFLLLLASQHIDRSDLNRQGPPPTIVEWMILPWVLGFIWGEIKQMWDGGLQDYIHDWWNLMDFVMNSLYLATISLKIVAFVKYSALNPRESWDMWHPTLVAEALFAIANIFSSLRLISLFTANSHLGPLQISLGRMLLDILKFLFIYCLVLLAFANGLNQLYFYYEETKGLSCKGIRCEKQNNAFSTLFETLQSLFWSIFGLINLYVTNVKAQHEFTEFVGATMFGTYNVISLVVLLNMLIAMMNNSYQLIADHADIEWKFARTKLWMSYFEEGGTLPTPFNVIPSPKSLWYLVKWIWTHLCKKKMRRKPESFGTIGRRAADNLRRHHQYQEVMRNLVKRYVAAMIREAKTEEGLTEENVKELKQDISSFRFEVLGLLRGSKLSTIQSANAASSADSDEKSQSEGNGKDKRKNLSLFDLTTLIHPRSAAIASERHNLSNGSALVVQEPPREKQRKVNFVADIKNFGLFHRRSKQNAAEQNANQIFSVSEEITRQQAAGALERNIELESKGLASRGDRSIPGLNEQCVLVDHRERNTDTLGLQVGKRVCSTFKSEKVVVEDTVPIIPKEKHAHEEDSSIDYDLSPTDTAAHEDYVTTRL

[4] = target: Delta-type opioid receptor (Homo sapiens, UniProt P41143); assay: Counterscreen for agonists of heterodimerization of the mu 1 (OPRM1) and delta 1 (OPRD1) opioid receptors: Luminescence-based cell-based high throughput dose response assay to identify agonists of OPRD1 homodimerization. [Related pubchem assays (depositor defined):AID504326, AID504355, AID504692, AID504904, AID504905]; assay type: functional
Sequence of Delta-type opioid receptor (P41143 whole entry): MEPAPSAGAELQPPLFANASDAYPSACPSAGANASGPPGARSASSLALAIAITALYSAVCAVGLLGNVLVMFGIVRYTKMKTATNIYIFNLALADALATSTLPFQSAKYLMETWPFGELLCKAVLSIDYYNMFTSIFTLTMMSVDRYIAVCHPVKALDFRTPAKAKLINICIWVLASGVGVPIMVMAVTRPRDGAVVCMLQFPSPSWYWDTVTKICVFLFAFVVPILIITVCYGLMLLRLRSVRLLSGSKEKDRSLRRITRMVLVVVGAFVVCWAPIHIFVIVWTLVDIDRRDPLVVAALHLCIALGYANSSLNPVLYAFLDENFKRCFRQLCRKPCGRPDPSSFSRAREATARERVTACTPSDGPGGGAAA

[5] = target: Mu-type opioid receptor (Homo sapiens, UniProt P35372); assay: Counterscreen for agonists of heterodimerization of the mu 1 (OPRM1) and delta 1 (OPRD1) opioid receptors: Luminescence-based cell-based high throughput dose response assay to identify agonists of OPRM1 homodimerization.; assay type: functional;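 further: U2OS cells expressing OPRM1 and beta-arrestin as split beta-galactosidase partners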
Sequence of Mu-type opioid receptor (P35372 whole entry): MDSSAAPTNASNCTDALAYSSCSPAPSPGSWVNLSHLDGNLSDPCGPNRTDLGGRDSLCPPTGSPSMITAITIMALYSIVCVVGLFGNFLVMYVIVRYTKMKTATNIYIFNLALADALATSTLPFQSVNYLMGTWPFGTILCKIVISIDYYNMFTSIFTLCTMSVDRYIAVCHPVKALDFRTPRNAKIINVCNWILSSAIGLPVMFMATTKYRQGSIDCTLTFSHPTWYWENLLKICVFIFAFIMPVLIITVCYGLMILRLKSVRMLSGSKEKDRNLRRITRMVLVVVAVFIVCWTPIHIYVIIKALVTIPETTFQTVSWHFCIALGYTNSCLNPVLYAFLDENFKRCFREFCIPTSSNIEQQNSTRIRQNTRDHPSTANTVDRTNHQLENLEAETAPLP

[6] = target: 5-hydroxytryptamine receptor 5A (Homo sapiens, UniProt P47898); assay: Counterscreen for agonists of OPRM1-OPRD1 heterodimerization: luminescence-based cell-based high throughput dose response assay to identify agonists of 5-hydroxytryptamine (serotonin) 5A receptor (HTR5A). [Related pubchem assays (depositor defined):AID504326, AID504355, AID504692, AID504904, AID504905]; assay type: functional
Sequence of 5-hydroxytryptamine receptor 5A (P47898 whole entry): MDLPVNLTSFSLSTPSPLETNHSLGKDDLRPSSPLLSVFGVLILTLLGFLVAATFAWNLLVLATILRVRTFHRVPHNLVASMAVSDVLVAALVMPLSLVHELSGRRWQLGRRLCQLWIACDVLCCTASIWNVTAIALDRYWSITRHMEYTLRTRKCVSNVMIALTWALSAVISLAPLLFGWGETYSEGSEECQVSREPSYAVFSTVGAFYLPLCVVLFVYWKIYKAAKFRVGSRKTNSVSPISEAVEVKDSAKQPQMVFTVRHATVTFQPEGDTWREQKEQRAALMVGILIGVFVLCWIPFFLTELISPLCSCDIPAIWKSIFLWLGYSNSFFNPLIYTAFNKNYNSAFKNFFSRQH

[7] = test system: BJ; assay: cytotoxicity toward BJ-TERT fibroblasts, dose response, cell-based, RAS-independent, luminescence (AID 1933); assay type: functional; settings: Homo sapiens
[8] = test system: BJ; assay: cells; assay type: functional, cell-based; settings: Homo sapiens
[9] = target: T2, G-protein coupled receptor 55 (Homo sapiens, UniProt Q9Y2T6); assay: GPR55 antagonists blocking LPI-driven arrestin recruitment, primary screen, imaging, U2OS, beta-arrestin-GFP, LPI agonist (AID 2013); assay type: functional;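 further: antagonist potency measured as reduced agonist-driven arrestin aggregation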
T2 sequence (Q9Y2T6 whole entry): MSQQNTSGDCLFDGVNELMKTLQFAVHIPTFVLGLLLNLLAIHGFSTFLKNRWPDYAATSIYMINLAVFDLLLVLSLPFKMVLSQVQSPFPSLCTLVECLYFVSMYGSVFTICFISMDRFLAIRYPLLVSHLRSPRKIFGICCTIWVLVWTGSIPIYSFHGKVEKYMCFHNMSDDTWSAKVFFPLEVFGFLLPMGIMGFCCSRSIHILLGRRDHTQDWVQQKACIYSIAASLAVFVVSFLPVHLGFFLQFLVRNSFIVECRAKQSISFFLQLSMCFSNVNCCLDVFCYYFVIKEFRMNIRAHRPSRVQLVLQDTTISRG

[10] = test system: BJ; assay: cytotoxicity toward BJ-TERT-LT-ST fibroblasts, dose response, cell-based, RAS-independent, luminescence (AID 1935); assay type: functional; settings: Homo sapiens;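 further: BJ fibroblasts immortalized with TERT plus LT and ST oncogenes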
[11] = cytotoxicity toward DRD oncogenic fibroblasts, dose response, cell-based, non-viral oncogenic, luminescence (AID 1934); assay type: functional; settings: Homo sapiens
[12] = target: T2, G-protein coupled receptor 55; assay: GPR55 agonists via beta-arrestin recruitment, primary screen, imaging, U2OS cells, beta-arrestin-GFP redistribution (AID 1961); assay type: functional
[13] = target: T3, Replicative DNA helicase DnaB (Mycobacterium tuberculosis, UniProt P9WMR3); assay: DnaB intein splicing inhibitors, dose response, biochemical, cell-free fluorescence (AID 449749); assay type: functional
T3 sequence (P9WMR3 whole entry): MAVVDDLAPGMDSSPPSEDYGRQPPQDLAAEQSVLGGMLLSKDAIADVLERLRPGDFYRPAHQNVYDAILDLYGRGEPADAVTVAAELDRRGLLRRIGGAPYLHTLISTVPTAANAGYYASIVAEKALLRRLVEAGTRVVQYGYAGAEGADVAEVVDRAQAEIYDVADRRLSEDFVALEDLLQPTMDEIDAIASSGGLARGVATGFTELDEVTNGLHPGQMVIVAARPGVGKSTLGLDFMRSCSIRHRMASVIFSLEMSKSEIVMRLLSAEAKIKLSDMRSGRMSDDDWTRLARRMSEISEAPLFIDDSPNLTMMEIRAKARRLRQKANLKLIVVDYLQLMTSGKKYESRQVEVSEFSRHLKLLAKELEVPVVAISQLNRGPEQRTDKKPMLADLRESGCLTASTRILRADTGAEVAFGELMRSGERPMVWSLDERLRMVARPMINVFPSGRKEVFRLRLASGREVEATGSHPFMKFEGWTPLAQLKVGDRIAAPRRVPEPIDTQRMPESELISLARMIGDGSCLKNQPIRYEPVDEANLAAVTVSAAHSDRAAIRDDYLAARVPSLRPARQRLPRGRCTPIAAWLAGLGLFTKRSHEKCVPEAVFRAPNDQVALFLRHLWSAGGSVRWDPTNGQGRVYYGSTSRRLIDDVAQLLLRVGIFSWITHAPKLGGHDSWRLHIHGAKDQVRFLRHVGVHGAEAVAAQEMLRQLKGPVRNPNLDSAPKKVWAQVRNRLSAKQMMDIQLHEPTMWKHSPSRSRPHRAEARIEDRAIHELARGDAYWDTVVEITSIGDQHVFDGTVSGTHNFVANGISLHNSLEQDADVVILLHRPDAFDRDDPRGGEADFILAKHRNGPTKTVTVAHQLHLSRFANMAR

[14] = target: T4, Insulin-degrading enzyme (Homo sapiens, UniProt P14735); assay: activators of recombinant IDE enzyme, dose response, counter-screen for IDE activator project, biochemical, fluorescence polarization (AID 588681)
T4 sequence (P14735 whole entry): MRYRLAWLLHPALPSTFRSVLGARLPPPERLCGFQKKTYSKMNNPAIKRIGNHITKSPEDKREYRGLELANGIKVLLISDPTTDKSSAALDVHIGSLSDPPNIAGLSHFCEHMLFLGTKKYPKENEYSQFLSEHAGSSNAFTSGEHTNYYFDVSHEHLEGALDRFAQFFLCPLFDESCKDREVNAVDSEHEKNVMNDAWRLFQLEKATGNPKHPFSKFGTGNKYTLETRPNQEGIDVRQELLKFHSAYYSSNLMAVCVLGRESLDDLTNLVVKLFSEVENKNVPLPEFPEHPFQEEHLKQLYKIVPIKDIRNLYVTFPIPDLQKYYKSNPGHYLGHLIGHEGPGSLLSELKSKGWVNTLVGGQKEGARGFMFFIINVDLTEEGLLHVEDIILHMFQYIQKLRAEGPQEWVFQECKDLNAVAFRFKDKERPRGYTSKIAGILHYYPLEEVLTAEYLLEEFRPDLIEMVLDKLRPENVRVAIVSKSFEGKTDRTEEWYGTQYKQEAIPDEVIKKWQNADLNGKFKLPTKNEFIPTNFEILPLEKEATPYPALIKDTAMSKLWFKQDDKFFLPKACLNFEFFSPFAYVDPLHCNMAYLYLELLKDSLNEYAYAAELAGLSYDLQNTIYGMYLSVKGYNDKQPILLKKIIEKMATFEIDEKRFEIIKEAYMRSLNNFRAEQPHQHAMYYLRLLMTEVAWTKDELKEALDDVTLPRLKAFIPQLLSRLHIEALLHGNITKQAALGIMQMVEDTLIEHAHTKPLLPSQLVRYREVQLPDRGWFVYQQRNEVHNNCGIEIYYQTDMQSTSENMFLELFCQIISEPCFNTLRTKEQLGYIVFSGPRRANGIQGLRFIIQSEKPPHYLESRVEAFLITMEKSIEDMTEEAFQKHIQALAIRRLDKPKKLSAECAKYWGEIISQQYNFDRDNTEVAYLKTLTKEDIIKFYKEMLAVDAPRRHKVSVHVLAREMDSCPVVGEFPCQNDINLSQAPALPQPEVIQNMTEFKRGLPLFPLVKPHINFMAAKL

[15] = test system: BJ; assay: cytotoxicity toward Ras-transformed BJeLR fibroblasts, dose response, cell-based, alamar blue fluorescence, cherrypicked samples (AID 2631); assay type: functional; settings: Homo sapiens;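 further: confirmatory dose-response assay in RAS-dependent BJ fibroblasts engineered with TERT, LT and ST, with cytotoxicity read by fluorescence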
[16] = target: T5, Protein RecA (Mycobacterium tuberculosis, UniProt P9WHJ3); assay: Fluorescence Cell-Free Homogeneous Dose Retest to Identify Inhibitors of RecA-Intein Splicing Activity. [Related pubchem assays (depositor defined):AID2097, AID2223, AID489010, AID492950]; assay type: functional
T5 sequence (P9WHJ3 whole entry): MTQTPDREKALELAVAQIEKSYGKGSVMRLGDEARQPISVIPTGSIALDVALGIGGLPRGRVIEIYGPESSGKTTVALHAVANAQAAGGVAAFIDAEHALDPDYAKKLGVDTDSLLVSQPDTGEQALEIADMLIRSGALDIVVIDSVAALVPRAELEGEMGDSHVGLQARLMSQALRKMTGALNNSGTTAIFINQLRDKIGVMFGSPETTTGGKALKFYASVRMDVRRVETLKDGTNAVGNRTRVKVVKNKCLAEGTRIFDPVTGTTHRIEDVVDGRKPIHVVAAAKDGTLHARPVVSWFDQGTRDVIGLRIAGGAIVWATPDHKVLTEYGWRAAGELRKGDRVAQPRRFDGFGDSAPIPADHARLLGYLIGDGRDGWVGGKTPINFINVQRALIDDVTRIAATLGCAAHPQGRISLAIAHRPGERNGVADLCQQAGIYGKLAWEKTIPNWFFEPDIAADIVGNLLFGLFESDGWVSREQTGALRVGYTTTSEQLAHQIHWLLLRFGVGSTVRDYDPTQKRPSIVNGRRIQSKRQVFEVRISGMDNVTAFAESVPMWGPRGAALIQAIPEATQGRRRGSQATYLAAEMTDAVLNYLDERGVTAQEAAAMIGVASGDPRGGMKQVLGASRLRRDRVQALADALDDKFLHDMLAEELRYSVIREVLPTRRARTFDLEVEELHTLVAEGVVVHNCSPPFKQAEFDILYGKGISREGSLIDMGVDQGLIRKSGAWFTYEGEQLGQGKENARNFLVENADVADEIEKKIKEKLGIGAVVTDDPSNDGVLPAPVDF

[17] = target: T4, Insulin-degrading enzyme; assay: activators of endogenous IDE in HEK cells, dose response, cell-based, fluorescence polarization (AID 588439); assay type: functional
[18] = test system: Vero; assay: cells; assay type: functional; settings: Chlorocebus sabaeus
[19] = test system: HEK293; assay: HEK cell cytotoxicity by LDH release, dose response, cytotoxicity control for IDE activator project, fluorescence, HEK cells (AID 588440); assay type: functional, cell-based; settings: Homo sapiens;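 further: cytotoxicity by LDH release measuring loss of membrane integrity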
[20] = test system: HEK293; assay: optical interference in Abeta FP readout, dose response, artefact control for IDE activator project, biochemical, fluorescence polarization (AID 588442); assay type: functional, cell-based; settings: Homo sapiens
[21] = test system: HEK293; assay: cells; settings: Homo sapiens
[22] = test system: HEK293; assay: cells; settings: Homo sapiens; remark: listed apart in the source
[23] = test system: Escherichia coli; assay: microbe, parasite or virus in culture

For `CCOc1ccc(/N=C(\C)C2=C(O)c3ccccc3C2=O)cc1`, the AC50 [1] was > 35 µM (active) and the AC50 [2] was > 35 µM (active).

With `COC(=O)NCC(c1ccc2c(c1)OCO2)N1CCN(c2ccccc2)CC1` (stereo not drawn) the EC50 [3] was 105 nM (active), the EC50 [4] was > 92.4 µM (inactive) and the EC50 [5] was 17.3 µM (inactive). The EC50 [6] was > 92.4 µM (inactive).

For `CCOC(=O)c1c(CSC(=N)N)n(-c2ccc(C)cc2)c2cc(Br)c(OC(C)=O)cc12`, the EC50 [7] was 5.98 µM (active), the EC50 [8] was 12 µM (inconclusive) and the IC50 [9] was 5.03 µM (active). For the same molecule, the EC50 [10] was 5.6 µM (active), the EC50 [11] was 9.02 µM (active) and the EC50 [12] was > 32 µM (inactive). For the same molecule, the AC50 [13] was 4.79 µM (active), the EC50 [14] was > 54.7 µM (inactive) and the EC50 [15] was > 133 µM (inactive). The EC50 [16] was 4.25 µM (active), the EC50 [17] was > 54.7 µM (inactive) and the CC50 [18] was > 25 µM (active). The IC50 [19] was 9.83 µM (active), the EC50 [20] was > 54.7 µM (inactive) and the EC50 [21] was > 59.7 µM (inactive). The EC50 [22] was > 59.7 µM (inactive).

In the case of `c1ccc2c(OCCCN3CCCCCC3)cccc2c1`, the AC50 [23] is reported as 19.6 µM (active).
